Assay results published in patent US4249005A, “Alkoxymethyl and benzyloxymethyl phenobarbital compounds” (priority 1969, dated 1981).

Columns and labels:
Acute oral toxicity = test: Acute oral toxicity; set-up: species or system adult albino male mice (Charles River strain); conditions: mouse, in vivo
Experimental: (§1) All tests, with the exceptions noted, were conducted on adult albino male mice (Charles River strain); the dosage consisted of the active agent suspended in 10% aqueous acacia and was administered orally unless otherwise indicated.
(§2) Acute oral toxicity and acute intraperitoneal toxicity were determined in the conventional manner. The results were expressed as LD50, the dose required to produce death in 50% of the animals treated, determined graphically, with the 95% limits shown in parentheses.

[1] = Anticonvulsant effectiveness against maximal electroshock; format: in vivo, adult albino male mice (Charles River strain); conditions: for ED50: Mus musculus, at time of peak effect, limits in parentheses; for ED50 / Time of peak activity: oral, mice
Experimental: as §1
(§3) Anticonvulsant effectiveness of each agent against maximal electroshock was determined at the time of peak effect. The time of peak anticonvulsant activity was determined by administering dosages of various sizes to a group of animals and administering a maximal electroshock to the animals at intervals thereafter by supply 60 ma. current through a corneal electrode for 0.2 second. […] The time of peak effect thus determined was used for all subsequent tests of anticonvulsant activity on the same active agent.
The duration of the anticonvulsant effect against maximal electroshock was compared with that of phenobarbital sodium at a dosage level of 0.1 millimole/kg of each.

[2] = Anticonvulsant effectiveness against Metrazol; format: in vivo, adult albino male mice (Charles River strain); conditions: oral, mice; for ED50: Mus musculus, Metrazol 106.25 mg/kg subcutaneously, limits in parentheses
Experimental: as §1
(§4) Anticonvulsant effectiveness was determined against a convulsive dose of Metrazol (106.25 mg/kg) injected subcutaneously; the criterior for effectiveness was failure to show clonic convulsive seizures. Anticonvulsant activity was determined against a lethal dose of strychnine sulfate (1.5 mg/kg) injected subcutaneously; the criterion was failure to die, even though seizures appeared.

[3] = Acute intraperitoneal toxicity; set-up: species or system adult albino male mice (Charles River strain); conditions: mouse, in vivo, ip, mice, 95% limits in parentheses
Experimental: as §1, §2

[4] = reported in Doran, Medicinal Chemistry, 1959; cited from earlier work
[5] = Anticonvulsant activity against maximal electroshock in the rat; format: in vivo; conditions: rat (Sprague Dawley Strain); limits in parentheses
Experimental: as §3

[6] = Neurological deficit (Swinyard et al. plus rotorod); set-up: species or system adult albino male mice (Charles River strain); conditions: mouse, in vivo; oral, mice; 95% limits in parentheses
Experimental: as §1
The dosage required to produce a neurological deficit was determined by the method of Swinyard et al., J. Pharmacol. Exptl. Therap. 106, 319 (1952) except that one additional test was employed: the ability of the animal to remain for at least one minute on a "rotorod", a horizontal rod rotated at 6 r.p.m. The results were expressed as TD50, the dose required to produce the effect, determined graphically, with 95% limits.

[7] = Anticonvulsant activity against strychnine; format: in vivo, adult albino male mice (Charles River strain); conditions: Mus musculus, po, read-out: Strychnine, ED50
Experimental: as §1, §4

[8] = cited from earlier work
[9] = Hypnotic activity (loss of the righting reflex); format: in vivo, adult albino male mice (Charles River strain); conditions: any dosage less than a lethal dose for compounds of the invention
Experimental: as §1

[10] = oral, mice, 95% limits in parentheses, read-out: LD50 (oral)
[11] = 0.1 millimole/kg, maximal electroshock

## CCCCCCCCCCCCOCN1C(=O)N(COCCCCCCCCCCCC)C(=O)C(CC)(c2ccccc2)C1=O [Example 8, 1,3-dilauryloxymethyl-5-ethyl-5-phenyl barbituric acid]
Acute oral toxicity; [10]
  LD50: > 500 mg/kg
[1]
  ED50: ~50 mg/kg
[1]; maximal electroshock
  Time of peak activity: 2 h

## CCC1(CC)C(=O)N(COC)C(=O)N(COC)C1=O [Example 9, 1,3-dimethoxymethyl-5,5-diethyl-barbituric acid]
Acute oral toxicity; [10]
  LD50: > 1000 mg/kg
[2]
  ED50: 7 mg/kg
[2]; reported with Metrazol result, test not stated
  Time of peak activity: 1 h
[3]
  LD50: ~1000 mg/kg

## C=CCC1(C(C)CCC)C(=O)N(COC)C(=O)N(COC)C1=O (stereo not drawn) [Example 11, 1,3-dimethoxymethyl-5-allyl-5-(2-pentyl) barbituric acid]
Acute oral toxicity; [10]
  LD50: > 500 mg/kg
[2]
  ED50: ~100 mg/kg

## CCCCCCCCCCCCOCN1C(=O)N(COCCCCCCCCCCCC)C(=O)C(CC)(CC)C1=O [Example 10, 1,3-di-n-dodecyloxymethyl-5,5-diethyl barbituric acid]
Acute oral toxicity; [10]
  LD50: > 1000 mg/kg
[2]
  ED50: ~200 mg/kg

## CCCCOCN1C(=O)NC(c2ccccc2)(c2ccccc2)C1=O [Example 6, 3-(n)-butoxymethyl-5,5-diphenylhydantoin]
Acute oral toxicity; [10]
  LD50: > 500 mg/kg
[1]
  ED50: < 25 mg/kg

## CCC1(c2ccccc2)C(=O)NC(=O)NC1=O [phenobarbital sodium, reference compound]
[1]; [11]
  time at which protection began to decrease: four
  time at which protection was nearly gone: eight
[1]; 0.1 millimole/kg, comparator
  onset of protection against maximal electroshock: less than 0.5 hour

## CCC1(c2ccccc2)C(=O)N(COC)C(=O)N(COC)C1=O [Example 1, 1,3-dimethoxymethyl-5-ethyl-5-phenyl barbituric acid]
Acute oral toxicity; [10]
  LD50: 470 mg/kg
[4]
  hypnotic effect: without effect
[2]
  ED50: 47 mg/kg
[1]; 0.1 millimole/kg
  duration of protection against maximal electroshock at about the same level: more than eight
[1]
  ED50: 13.5 mg/kg
[1]; maximal electroshock
  Time of peak activity: 2 h
[1]; repeated daily dosage of the same animals for four days
  change in the ED50 to protect against maximal electroshock on repeated dosage: no significant change
[5]
  ED50: 6.6 mg/kg
[6]
  TD50: 47 mg/kg
[3]
  LD50: 490 mg/kg
[7]
  ED50: 200 mg/kg

## C=CCC1(C(C)CCC)C(=O)N(COCc2ccccc2)C(=O)N(COCc2ccccc2)C1=O (stereo not drawn) [Example 12, 1,3-dibenzyloxymethyl-5-allyl-5-(2-pentyl) barbituric acid]
Acute oral toxicity; [10]
  LD50: > 1000 mg/kg
[2]
  ED50: ~200 mg/kg

## COCN1C(=O)NC(c2ccccc2)(c2ccccc2)C1=O [Example 2, 3-methoxymethyl-5,5-diphenylhydantoin]
Acute oral toxicity; route not stated with the value (oral unless otherwise indicated), read-out: LD50
  LD50: ~500 mg/kg
[1]
  ED50: < 25 mg/kg
[1]; after ingestion
  duration of anticonvulsant activity (maximal electroshock): more than 2 hours
  onset of anticonvulsant activity (maximal electroshock): less than 0.5 hour

## CCCCOCN1C(=O)N(COCCCC)C(=O)C(CC)(c2ccccc2)C1=O [Example 4, 1,3-di-(n)-butoxymethyl-5-ethyl-5-phenyl barbituric acid]
Acute oral toxicity; [10]
  LD50: > 500 mg/kg
[1]
  ED50: < 100 mg/kg

## CCOCN1C(=O)N(COCC)C(=O)C(CC)(c2ccccc2)C1=O [Example 5, 1,3-diethoxymethyl-5-ethyl-5-phenyl barbituric acid]
[1]
  ED50: < 25 mg/kg
[1]; maximal electroshock
  Time of peak activity: 11/2

## CCC1(c2ccccc2)C(=O)NC(=O)NC1=O [Phenobarbital, phenobarbital]
[8]; known property
  hypnotic activity: exhibits hypnotic activity as well as anticonvulsant activity
[8]; long known, treatment of epilepsy
  anticonvulsant usefulness: useful as anticonvulsant agents in warm-blooded animals
[9]
  Hypnotic activity (loss of the righting reflex, onset of sleep): did exhibit hypnotic activity

## O=C1NC(=O)C(c2ccccc2)(c2ccccc2)N1 [diphenylhydantoin]
[8]; known property
  hypnotic activity: not hypnotic
  undesirable side effects: hypertrophic gingivitis, megaloblastic anemia, toxic psychoses, and hirsutism
